Experimental data: ChEMBL document CHEMBL5696442, “Discovery of type II inhibitors of TGFβ-activated kinase 1 (TAK1) and mitogen-activated protein kinase kinase kinase kinase 2 (MAP4K2)” (J Med Chem, 2015)
The source made the active and inactive calls. The calls are words filed in the database; no cut-off is given here.

How the values were obtained:
[1] = target: T1, Serine/threonine-protein kinase TAO2 (Homo sapiens) (UniProt Q9UL54); test: Inhibition of TAO2 K2 labeling site in human Huh-7 cells at 1 uM by KiNativ Profiling analysis relative to control; assay type: cell-based
T1 sequence (whole entry): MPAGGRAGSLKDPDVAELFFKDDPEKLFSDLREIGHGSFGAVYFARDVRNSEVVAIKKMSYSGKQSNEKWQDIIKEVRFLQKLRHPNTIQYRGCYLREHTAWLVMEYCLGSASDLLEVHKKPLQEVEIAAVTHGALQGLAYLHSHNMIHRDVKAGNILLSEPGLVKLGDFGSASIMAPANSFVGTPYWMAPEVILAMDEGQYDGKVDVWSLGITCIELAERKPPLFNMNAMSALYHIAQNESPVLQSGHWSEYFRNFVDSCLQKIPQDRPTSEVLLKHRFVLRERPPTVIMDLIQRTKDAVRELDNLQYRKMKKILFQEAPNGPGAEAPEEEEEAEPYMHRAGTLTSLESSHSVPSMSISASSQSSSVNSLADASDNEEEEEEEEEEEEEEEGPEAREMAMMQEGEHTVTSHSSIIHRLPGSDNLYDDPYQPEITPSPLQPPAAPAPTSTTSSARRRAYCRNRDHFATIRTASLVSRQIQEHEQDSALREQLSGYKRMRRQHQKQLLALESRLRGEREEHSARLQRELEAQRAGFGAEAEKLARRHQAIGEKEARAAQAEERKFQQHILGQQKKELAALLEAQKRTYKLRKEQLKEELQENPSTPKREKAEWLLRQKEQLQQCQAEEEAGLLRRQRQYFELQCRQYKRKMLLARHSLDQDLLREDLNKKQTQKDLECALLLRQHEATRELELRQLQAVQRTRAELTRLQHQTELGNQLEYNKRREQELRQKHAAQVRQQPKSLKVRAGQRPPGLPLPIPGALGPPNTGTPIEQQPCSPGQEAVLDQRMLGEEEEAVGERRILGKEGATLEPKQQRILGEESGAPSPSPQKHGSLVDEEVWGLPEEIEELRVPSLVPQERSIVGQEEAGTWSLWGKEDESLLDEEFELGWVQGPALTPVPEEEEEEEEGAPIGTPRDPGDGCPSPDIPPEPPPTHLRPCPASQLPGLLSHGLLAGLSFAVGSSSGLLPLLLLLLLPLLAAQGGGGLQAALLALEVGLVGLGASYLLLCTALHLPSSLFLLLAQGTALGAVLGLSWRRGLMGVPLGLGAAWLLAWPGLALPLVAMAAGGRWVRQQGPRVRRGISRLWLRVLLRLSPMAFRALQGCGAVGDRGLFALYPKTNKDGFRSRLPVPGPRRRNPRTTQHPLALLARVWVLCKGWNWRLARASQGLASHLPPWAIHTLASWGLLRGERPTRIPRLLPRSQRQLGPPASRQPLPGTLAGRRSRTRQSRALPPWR

[2] = target: Serine/threonine-protein kinase DCLK1 (Homo sapiens) (UniProt O15075); test: Inhibition of DCAMKL1 (unknown origin) at 10 uM by Ambit Kinomescan binding assay
[3] = target: Serine/threonine-protein kinase PLK4 (Homo sapiens) (UniProt O00444); test: Inhibition of PLK4 (unknown origin) at 10 uM by Ambit Kinomescan binding assay
[4] = target: SNF-related serine/threonine-protein kinase (Homo sapiens) (UniProt Q9NRH2); test: Inhibition of SNRK (unknown origin) at 1 uM by Ambit Kinomescan binding assay relative to control
[5] = target: Phosphatidylinositol 4,5-bisphosphate 3-kinase catalytic subunit alpha isoform (Homo sapiens) (UniProt P42336); test: Inhibition of PIK3CA ATP labeling site in human A-375 cells at 5 uM by KiNativ Profiling analysis relative to control; assay type: cell-based
[6] = tested on: Tyrosine-protein kinase ABL1 (Homo sapiens), P00519 [Y253F]; test: Inhibition of phosphorylated ABL1 Y253F mutant (unknown origin) at 1 uM by Ambit Kinomescan binding assay relative to control; values are per cent of control
[7] = target: Serine/threonine-protein kinase 38 (Homo sapiens) (UniProt Q15208); test: Inhibition of NDR1 Lys1 labeling site in human A-375 cells at 0.05 uM by KiNativ Profiling analysis relative to control; assay type: cell-based
[8] = target: T2, Mitogen-activated protein kinase kinase kinase kinase 2 (Homo sapiens) (UniProt Q12851); test: Inhibition of MAP4K2 (unknown origin) at 1 uM by Ambit Kinomescan binding assay relative to control; values are per cent of control
T2 sequence (whole entry): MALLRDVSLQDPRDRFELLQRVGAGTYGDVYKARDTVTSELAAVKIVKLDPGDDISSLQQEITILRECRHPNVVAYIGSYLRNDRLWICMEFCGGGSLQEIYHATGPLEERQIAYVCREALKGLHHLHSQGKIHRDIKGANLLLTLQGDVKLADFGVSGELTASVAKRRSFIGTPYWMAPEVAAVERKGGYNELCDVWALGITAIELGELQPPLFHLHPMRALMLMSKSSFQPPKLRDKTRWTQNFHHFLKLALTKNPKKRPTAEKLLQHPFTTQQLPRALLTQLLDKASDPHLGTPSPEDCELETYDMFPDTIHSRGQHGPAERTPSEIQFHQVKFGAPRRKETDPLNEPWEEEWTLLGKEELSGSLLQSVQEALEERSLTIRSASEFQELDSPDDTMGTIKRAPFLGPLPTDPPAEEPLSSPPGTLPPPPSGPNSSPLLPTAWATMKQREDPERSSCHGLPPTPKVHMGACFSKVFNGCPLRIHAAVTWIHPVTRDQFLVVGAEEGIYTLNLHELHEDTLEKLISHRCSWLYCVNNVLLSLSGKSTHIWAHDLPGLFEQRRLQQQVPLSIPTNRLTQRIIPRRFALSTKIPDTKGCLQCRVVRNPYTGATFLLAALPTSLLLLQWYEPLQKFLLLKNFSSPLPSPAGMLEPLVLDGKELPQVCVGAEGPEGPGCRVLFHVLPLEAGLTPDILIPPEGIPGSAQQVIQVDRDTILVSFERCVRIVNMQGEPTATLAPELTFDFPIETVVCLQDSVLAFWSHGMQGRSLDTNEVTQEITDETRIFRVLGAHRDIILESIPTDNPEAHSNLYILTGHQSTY

SNF-related serine/threonine-protein kinase (Homo sapiens), sequence (Q9NRH2 whole entry, canonical isoform): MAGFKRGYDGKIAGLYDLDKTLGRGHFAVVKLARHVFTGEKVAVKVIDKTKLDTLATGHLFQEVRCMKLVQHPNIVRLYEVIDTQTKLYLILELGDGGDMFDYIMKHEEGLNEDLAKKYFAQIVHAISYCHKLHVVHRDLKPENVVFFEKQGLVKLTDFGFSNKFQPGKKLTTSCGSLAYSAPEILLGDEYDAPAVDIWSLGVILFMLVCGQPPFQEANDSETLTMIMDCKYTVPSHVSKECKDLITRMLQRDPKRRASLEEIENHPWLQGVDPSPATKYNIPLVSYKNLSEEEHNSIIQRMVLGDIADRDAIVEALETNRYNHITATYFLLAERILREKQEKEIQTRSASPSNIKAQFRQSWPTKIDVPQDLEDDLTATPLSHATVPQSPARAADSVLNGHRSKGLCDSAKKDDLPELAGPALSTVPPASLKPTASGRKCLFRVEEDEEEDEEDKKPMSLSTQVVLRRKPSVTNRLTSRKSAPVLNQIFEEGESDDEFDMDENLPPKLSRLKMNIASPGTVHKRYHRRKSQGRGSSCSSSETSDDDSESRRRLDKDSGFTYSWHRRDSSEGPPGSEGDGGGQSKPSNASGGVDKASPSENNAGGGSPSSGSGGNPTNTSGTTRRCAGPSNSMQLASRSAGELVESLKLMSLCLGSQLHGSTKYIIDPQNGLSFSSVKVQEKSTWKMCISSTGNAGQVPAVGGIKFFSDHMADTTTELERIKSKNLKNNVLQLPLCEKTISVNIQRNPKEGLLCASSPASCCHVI
Serine/threonine-protein kinase 38 (Homo sapiens), sequence (Q15208 2-465 limits assumed): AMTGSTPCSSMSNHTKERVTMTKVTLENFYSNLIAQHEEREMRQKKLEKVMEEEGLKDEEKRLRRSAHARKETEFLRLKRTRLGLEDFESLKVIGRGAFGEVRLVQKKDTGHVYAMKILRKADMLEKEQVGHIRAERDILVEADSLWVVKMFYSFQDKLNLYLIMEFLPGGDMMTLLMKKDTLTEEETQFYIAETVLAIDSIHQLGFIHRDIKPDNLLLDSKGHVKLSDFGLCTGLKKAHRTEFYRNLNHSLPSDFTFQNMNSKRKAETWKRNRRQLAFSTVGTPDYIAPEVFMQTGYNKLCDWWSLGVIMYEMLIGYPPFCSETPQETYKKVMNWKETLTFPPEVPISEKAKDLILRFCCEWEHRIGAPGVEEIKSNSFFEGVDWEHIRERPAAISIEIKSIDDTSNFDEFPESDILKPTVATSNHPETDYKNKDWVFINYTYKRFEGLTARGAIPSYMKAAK
Serine/threonine-protein kinase DCLK1 (Homo sapiens), sequence (O15075 whole entry): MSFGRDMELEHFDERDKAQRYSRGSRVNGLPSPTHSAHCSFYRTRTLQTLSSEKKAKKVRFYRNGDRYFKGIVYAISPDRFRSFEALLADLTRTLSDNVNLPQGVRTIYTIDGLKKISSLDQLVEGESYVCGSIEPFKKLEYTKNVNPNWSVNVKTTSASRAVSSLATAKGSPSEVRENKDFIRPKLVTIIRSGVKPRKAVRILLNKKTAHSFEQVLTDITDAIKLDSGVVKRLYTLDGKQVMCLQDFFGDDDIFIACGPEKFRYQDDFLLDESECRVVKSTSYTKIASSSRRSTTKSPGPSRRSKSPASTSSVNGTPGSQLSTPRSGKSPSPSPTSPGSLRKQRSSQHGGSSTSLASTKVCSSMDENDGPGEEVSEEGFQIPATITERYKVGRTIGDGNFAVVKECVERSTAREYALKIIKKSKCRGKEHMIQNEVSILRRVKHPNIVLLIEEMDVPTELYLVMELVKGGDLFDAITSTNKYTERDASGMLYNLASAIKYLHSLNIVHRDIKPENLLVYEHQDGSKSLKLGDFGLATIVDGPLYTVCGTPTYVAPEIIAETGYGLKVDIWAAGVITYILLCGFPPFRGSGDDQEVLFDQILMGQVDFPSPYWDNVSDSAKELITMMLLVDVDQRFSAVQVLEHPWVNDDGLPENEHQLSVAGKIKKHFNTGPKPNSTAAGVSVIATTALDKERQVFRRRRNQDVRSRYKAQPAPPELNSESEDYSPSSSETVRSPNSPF
Phosphatidylinositol 4,5-bisphosphate 3-kinase catalytic subunit alpha isoform (Homo sapiens), sequence (P42336 whole entry, canonical isoform): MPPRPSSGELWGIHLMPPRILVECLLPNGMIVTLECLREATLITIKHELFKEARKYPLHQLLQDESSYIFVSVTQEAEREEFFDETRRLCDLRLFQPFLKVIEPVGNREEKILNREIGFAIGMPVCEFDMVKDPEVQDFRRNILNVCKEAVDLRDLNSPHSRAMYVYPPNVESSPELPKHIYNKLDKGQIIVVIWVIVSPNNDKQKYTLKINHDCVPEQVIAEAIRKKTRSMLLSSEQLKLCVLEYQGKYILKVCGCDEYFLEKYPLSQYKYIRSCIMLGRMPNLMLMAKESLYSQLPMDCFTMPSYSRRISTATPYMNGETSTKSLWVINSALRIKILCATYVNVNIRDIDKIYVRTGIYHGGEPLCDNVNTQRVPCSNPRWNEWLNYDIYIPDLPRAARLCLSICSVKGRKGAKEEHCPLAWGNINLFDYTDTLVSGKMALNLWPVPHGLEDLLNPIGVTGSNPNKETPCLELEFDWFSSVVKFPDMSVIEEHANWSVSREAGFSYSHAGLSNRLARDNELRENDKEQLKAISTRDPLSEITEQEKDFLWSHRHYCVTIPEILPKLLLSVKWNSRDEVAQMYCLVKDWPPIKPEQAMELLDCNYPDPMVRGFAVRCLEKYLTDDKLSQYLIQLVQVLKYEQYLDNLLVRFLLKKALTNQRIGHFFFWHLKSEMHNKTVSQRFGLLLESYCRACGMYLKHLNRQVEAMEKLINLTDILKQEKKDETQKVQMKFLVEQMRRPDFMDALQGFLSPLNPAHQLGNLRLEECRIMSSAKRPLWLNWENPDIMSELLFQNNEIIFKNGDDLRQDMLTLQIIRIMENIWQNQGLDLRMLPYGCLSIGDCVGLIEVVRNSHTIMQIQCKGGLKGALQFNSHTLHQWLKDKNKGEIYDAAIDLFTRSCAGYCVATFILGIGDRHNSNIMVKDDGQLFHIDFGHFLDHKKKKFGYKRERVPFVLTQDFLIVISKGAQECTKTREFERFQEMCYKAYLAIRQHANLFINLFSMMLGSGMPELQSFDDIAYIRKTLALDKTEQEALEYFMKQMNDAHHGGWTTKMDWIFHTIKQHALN
Serine/threonine-protein kinase PLK4 (Homo sapiens), sequence (O00444 whole entry): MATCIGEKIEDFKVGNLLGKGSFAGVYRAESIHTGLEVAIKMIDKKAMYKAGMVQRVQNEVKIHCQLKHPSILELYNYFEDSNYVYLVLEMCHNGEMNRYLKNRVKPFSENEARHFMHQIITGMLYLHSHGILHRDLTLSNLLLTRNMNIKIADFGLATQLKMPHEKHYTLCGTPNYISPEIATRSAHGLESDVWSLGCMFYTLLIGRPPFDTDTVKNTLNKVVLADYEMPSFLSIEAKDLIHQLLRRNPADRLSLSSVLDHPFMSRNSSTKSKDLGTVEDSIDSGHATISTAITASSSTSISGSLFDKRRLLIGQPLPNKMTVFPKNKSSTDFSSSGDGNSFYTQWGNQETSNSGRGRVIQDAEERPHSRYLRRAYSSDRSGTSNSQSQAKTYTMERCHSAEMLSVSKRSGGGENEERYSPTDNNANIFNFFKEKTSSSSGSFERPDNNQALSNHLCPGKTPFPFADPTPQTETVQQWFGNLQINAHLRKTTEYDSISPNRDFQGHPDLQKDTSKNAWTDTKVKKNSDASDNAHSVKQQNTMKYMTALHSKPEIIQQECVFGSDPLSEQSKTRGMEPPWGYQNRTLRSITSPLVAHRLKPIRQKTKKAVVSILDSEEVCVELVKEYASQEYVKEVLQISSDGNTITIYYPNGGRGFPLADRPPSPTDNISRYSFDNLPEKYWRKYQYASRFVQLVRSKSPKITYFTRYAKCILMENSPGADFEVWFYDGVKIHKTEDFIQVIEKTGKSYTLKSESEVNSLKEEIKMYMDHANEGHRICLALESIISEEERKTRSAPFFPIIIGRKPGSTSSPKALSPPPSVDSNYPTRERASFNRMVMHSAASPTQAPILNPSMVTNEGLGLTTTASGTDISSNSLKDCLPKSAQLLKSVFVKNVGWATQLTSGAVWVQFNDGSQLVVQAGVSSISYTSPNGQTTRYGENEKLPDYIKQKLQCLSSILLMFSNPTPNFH

SMILES	inhibition [1] [%]	inhibition [2]	inhibition [3]	inhibition [4] [%]	inhibition [5] [%]	percent of control [6] [%]	inhibition [7] [%]	percent of control [8] [%]
CCN1CCN(Cc2ccc(NC(=O)c3ccc(C)c(Oc4ccnc5[nH]ccc45)c3)cc2C(F)(F)F)CC1	4.7	inactive	inactive					
CCN1CCN(Cc2ccc(NC(=O)c3ccc(C)c(/C=C/c4cnc5[nH]ccc5c4OC)c3)cc2C(F)(F)F)CC1				100	56.9	0.75	3.2	3.2
